The experiment is described as follows: mitochondrial fusion inhibitors, confirmation, cell-based, chemical genetic, wild-type and mutant (AID 1361). Conditions: Cell-based mitochondrial fusion phenotype, imaging.
[1] abbreviates: mutant cells, measured here: mutant cell line IC50.

The source made the active and inactive calls. No rule for the calls is given here. Bounds are passed on as bounds.

The IC50 is the point on the concentration scale where inhibition reaches its midpoint.

`Cc1[nH]c2ccccc2c1/C=C(\C#N)C(=O)NC(C)c1ccccc1` (stereo not drawn): the IC50 reads like this: (WT cells) > 25 µM (inactive); under setting [1], more than 25 µM.

Take `Clc1ccc(-c2csc3ncnc(N4CCc5ccccc5C4)c23)cc1`: the IC50 was 10 µM (WT cells) and more than 25 µM under setting [1].

Take `Cc1ccc(-c2csc3ncnc(N4CCc5ccccc5C4)c23)cc1`: the IC50 (WT cells) was 9.52 µM and the IC50 under setting [1] is more than 25 µM.

Consider `COC(=O)Nc1snnc1C`, for which the IC50 reads like this: (WT cells) > 25 µM (inactive); under setting [1], more than 25 µM.

For the compound `COc1ccccc1CNC(=O)c1ccc(-c2ccccc2C(F)(F)F)o1`, the IC50 (WT cells) was 21.3 µM and the IC50 under setting [1] is more than 25 µM.

Consider `C/C=C(/C(=C/C)c1ccc(O)cc1)c1ccc(O)cc1`, for which the IC50 was 21 µM (WT cells) and more than 25 µM under setting [1].

As for `CCOC(=O)c1[nH]c2ccc(OC)cc2c1NC(=O)C(C)N1CCC2(CC1)OCCO2` (stereo not drawn), the IC50 (WT cells) was > 25 µM (inactive) and the half-inhibitory concentration (IC50) under setting [1] was more than 25 µM.

Take `COc1cccc(NC(=S)N(CCc2c(C)[nH]c3ccccc23)Cc2ccco2)c1`: the IC50 by setting is: (WT cells) 15.6 µM (inactive); under setting [1], more than 12.5 µM.

For `CC1=CC(C)(C)N(C(=O)c2ccc(F)cc2)c2cc3c(cc21)OCO3`, the IC50 (WT cells) was > 25 µM (inactive) and the 50% inhibitory concentration (IC50) under setting [1] was more than 12.5 µM.

Consider `CCCN(CCC)C(=O)CC(c1ccccc1)c1cc(Br)ccc1O` (stereo not drawn), for which the half-inhibitory concentration (IC50) (WT cells) was 13.7 µM and the IC50 under setting [1] was more than 25 µM.

On to `COCCCNC(=O)c1cccc(C(=O)NCCCOC)c1`, for which the IC50 is > 25 µM (inactive) (WT cells) and more than 25 µM under setting [1].

As for `CCc1cccc(C)c1NC(=S)NCCc1c(C)[nH]c2ccc(C)cc12`, the IC50 was > 25 µM (inactive) (WT cells) and more than 25 µM under setting [1].

On to `C=CCNC1=C(Cl)C(=O)N(c2cccc(Cl)c2Cl)C1=O`, for which the IC50 (WT cells) was > 25 µM (inactive) and the IC50 under setting [1] was more than 25 µM.

For the compound `CCn1ccnc1CN1CCc2c([nH]c3ccccc23)C1C1CCCCC1` (stereo not drawn), the IC50 is, setting by setting: (WT cells) 17.6 µM; under setting [1], more than 25 µM.

With `Cc1ccc2nc(-c3ccccc3)c(CN3CCN(c4ccccc4F)CC3)n2c1`, the IC50 was 15.6 µM (WT cells) and more than 25 µM under setting [1].

On to `CN(C)c1ccc(C(CNS(=O)(=O)c2ccc(F)c(F)c2)c2c[nH]c3ccccc23)cc1` (stereo not drawn), for which the IC50 (WT cells) is 13.4 µM and the IC50 under setting [1] was more than 25 µM.

In the case of `COc1ccc(-n2cc(-c3ccccc3)c3c(N4CC(C)OC(C)C4)ncnc32)cc1` (stereo not drawn), the half-maximal inhibitory concentration (IC50) is, setting by setting: (WT cells) 21.5 µM; under setting [1], more than 25 µM.

For the compound `O=C(CSc1nnc(CCc2ccccc2)n1-c1ccc(Cl)cc1)c1ccccc1`, the concentration for half-maximal inhibition (IC50) by setting is: (WT cells) 17.2 µM; under setting [1], more than 25 µM.

As to `CC(C)(C)c1ccc(CNc2ccc([N+](=O)[O-])cn2)cc1`, the IC50 was > 25 µM (inactive) (WT cells) and more than 25 µM under setting [1].

`COc1ccccc1CNc1nc2nc(C)c(C)c(=O)n2[nH]1`: the IC50 was > 25 µM (inactive) (WT cells) and more than 25 µM under setting [1].

For `COc1ccc(C2C3=C(CC(C)(C)CC3=O)Oc3ncn(Cc4ccccc4)c(=N)c32)cc1` (stereo not drawn), the IC50 (WT cells) was 12.6 µM and the 50% inhibitory concentration (IC50) under setting [1] was more than 25 µM.

Regarding `CCCC[n+]1c(-c2ccc(Cl)cc2Cl)csc1Nc1ccccc1`, the IC50 reads like this: (WT cells) 6.52 µM; under setting [1], more than 25 µM.

`c1ccc(N(c2ccccc2)c2nc(N3CCCC3)nc(-n3ccnc3)n2)cc1`: the half-inhibitory concentration (IC50) was 15.5 µM (WT cells) and more than 25 µM under setting [1].

On to `C=CCSc1nnc(NC(=O)COc2ccc3ccccc3c2)s1`, for which the IC50 (WT cells) was > 25 µM (inactive) and the half-inhibitory concentration (IC50) under setting [1] is more than 25 µM.

In the case of `Cc1ccccc1N1CCN(c2ncnc3scc(-c4cccs4)c23)CC1`, the IC50 was 9.75 µM (WT cells) and more than 12.5 µM under setting [1].

For the compound `Cc1ccccc1COC(=O)c1nn(-c2ccccc2)nc1N`, the IC50 runs as follows: (WT cells) > 25 µM (inactive); under setting [1], more than 25 µM.

Consider `COc1ccccc1Cn1c(/C=C/c2ccccc2)nc2ccccc21`, for which the IC50 was 9.02 µM (inactive) (WT cells) and 8.43 µM under setting [1].

With `O=C(CNCc1ccccc1Cl)Nc1ccccc1N1CCCCC1`, the concentration for half-maximal inhibition (IC50) (WT cells) was 13.2 µM and the IC50 under setting [1] is more than 25 µM.

For `CS(=O)(=O)c1nc2ccccc2n1Cc1ccccc1`, the IC50 by setting is: (WT cells) > 25 µM (inactive); under setting [1], more than 25 µM.

Regarding `CCOC(=O)c1cnc(-n2nc(C)cc2C)nc1NNc1cc(C)nc(-c2ccccc2)n1`, the IC50 (WT cells) is 16.3 µM and the IC50 under setting [1] was more than 25 µM.

Consider `O=C(c1ccc2c(c1)OCO2)N(Cc1cccs1)C1(C(=O)NC2CCCCC2)CCCCC1`, for which the IC50 by setting is: (WT cells) > 25 µM (inactive); under setting [1], more than 25 µM.

Turning to `COC(=O)Cn1ccc(N(C)C)c(C#N)c1=O`, the IC50 reads like this: (WT cells) > 25 µM (inactive); under setting [1], more than 25 µM.

For the compound `O=[N+]([O-])c1ccccc1/C=N/n1c(C2CCCCC2)n[nH]c1=S`, the IC50 (WT cells) was > 25 µM (inactive) and the half-maximal inhibitory concentration (IC50) under setting [1] is more than 25 µM.

For the compound `Cc1cc(-c2ccccc2)nc2cc(C(=O)N(Cc3ccccc3)Cc3ccccc3)nn12`, the IC50 runs as follows: (WT cells) 8.35 µM; under setting [1], more than 25 µM.

As for `Cc1oc(-c2ccccc2)nc1CN1C(=O)C(C)N=C(c2ccccc2F)c2cc(Cl)ccc21` (stereo not drawn), the concentration for half-maximal inhibition (IC50) (WT cells) is 12.4 µM and the 50% inhibitory concentration (IC50) under setting [1] is more than 25 µM.

On to `Clc1ccc2c(c1)C(c1ccccc1Cl)=NCc1nnc(N3CCN(CCOc4ccccc4)CC3)n1-2`, for which the IC50 was 23.7 µM (WT cells) and more than 25 µM under setting [1].

With `CCN(CC)CCNC(=O)Cn1nc(Cc2ccccc2)c2ccccc2c1=O`, the IC50 reads like this: (WT cells) > 25 µM (inactive); under setting [1], more than 25 µM.

Take `CSc1ccc(Cl)c(C(=O)NCCOc2cc(C)ccc2C(C)C)c1`: the concentration for half-maximal inhibition (IC50) is 12.9 µM (WT cells) and more than 25 µM under setting [1].

On to `Cc1nn(CCC(N)=S)c2nc(-c3cccs3)cc(C(F)(F)F)c12`, for which the IC50 reads like this: (WT cells) 18.9 µM; under setting [1], more than 25 µM.

Consider `O=C1c2ccccc2C(=O)N1CCN1CCCCC1`, for which the IC50 runs as follows: (WT cells) > 25 µM (inactive); under setting [1], more than 25 µM.

In the case of `COc1cc(SC#N)ccc1N=Cc1c(C)[nH]n(-c2ccc(C)cc2)c1=O`, the 50% inhibitory concentration (IC50) runs as follows: (WT cells) 17.4 µM; under setting [1], more than 25 µM.

In the case of `O=C(NCc1ccco1)c1cc(-c2ccccc2)on1`, the IC50 was > 25 µM (inactive) (WT cells) and more than 25 µM under setting [1].

Regarding `O=C(c1csc(Nc2ccccc2Cl)n1)N1CCCC1`, the IC50 was > 25 µM (inactive) (WT cells) and more than 25 µM under setting [1].

With `CCc1ccccc1N(C1=NCCCS1)S(=O)(=O)c1ccc(C(C)(C)C)cc1`, the concentration for half-maximal inhibition (IC50) is, setting by setting: (WT cells) 7.58 µM; under setting [1], more than 25 µM.

Regarding `Cc1ccc(NC(=O)c2cc(-c3ccccc3)nn2-c2ccccc2)c(Br)c1`, the IC50 runs as follows: (WT cells) 4.51 µM; under setting [1], more than 25 µM.

Take `O=C(COc1ccccc1-c1ccccc1)NCc1cccc(Cl)c1`: the IC50 (WT cells) is 15 µM and the concentration for half-maximal inhibition (IC50) under setting [1] was more than 25 µM.

On to `C=CCn1c(SCC(=O)Nc2cccc(C(=O)OC)c2)nnc1C(C)NC(=O)c1cccs1` (stereo not drawn), for which the IC50 (WT cells) was > 25 µM (inactive) and the IC50 under setting [1] is more than 25 µM.

`Cc1cc(Br)c(OCc2ccc(C(=O)N/N=C3\CC4CC=CC34)cc2)c(Br)c1` (stereo not drawn): the IC50 is, setting by setting: (WT cells) 7.88 µM; under setting [1], 14.2 µM.

Take `CCOc1cccc(-c2nn(-c3ccccc3)cc2/C=C(/C#N)C(=O)NCCCn2ccnc2)c1`: the IC50 is > 25 µM (inactive) (WT cells) and more than 25 µM under setting [1].

For `CC(=O)Nc1ccc(S(=O)(=O)N2CCN(C)CC2)cc1`, the IC50 runs as follows: (WT cells) > 25 µM (inactive); under setting [1], more than 25 µM.

Take `O=C(COC(=O)c1ccccc1Cc1ccccc1)Nc1ccc(SC(F)F)cc1`: the concentration for half-maximal inhibition (IC50) runs as follows: (WT cells) 5.92 µM; under setting [1], more than 25 µM.

As for `Cc1cccc(N2CCN(C(c3cccs3)c3nnnn3C(C)(C)C)CC2)c1C` (stereo not drawn), the IC50 reads like this: (WT cells) 10.9 µM; under setting [1], more than 25 µM.

As for `C(=N\Nc1nc(N2CCCCCC2)nc(N2CCCCCC2)n1)/c1ccccc1`, the 50% inhibitory concentration (IC50) reads like this: (WT cells) 9.35 µM; under setting [1], more than 25 µM.

Consider `CCOC(=O)c1c(C)[nH]c(C)c1C(=O)CSc1nnc(-c2ccncc2)n1C`, for which the IC50 runs as follows: (WT cells) > 25 µM (inactive); under setting [1], more than 25 µM.

Consider `COC(=O)c1cn(N(C)c2ncc(C(F)(F)F)cc2Cl)c(=O)c2ccccc12`, for which the IC50 is, setting by setting: (WT cells) 15.8 µM (inactive); under setting [1], 15.5 µM.

As to `O=C(Nc1ccccc1N1CCOCC1)c1cccc(F)c1`, the IC50 (WT cells) is 9.3 µM and the concentration for half-maximal inhibition (IC50) under setting [1] came to 21.6 µM.

Turning to `CC(C)C(c1nnnn1C(C)(C)C)N1CCC(Cc2ccccc2)CC1` (stereo not drawn), the concentration for half-maximal inhibition (IC50) runs as follows: (WT cells) 12.1 µM; under setting [1], more than 25 µM.

For the compound `COc1cc(/C=N/N=C(/C(=O)c2ccccc2)c2ccccc2)cc(OC)c1O`, the IC50 by setting is: (WT cells) 16.5 µM; under setting [1], more than 25 µM.

Turning to `Cc1sc(NC(=O)c2ccccc2)c(C(c2ccc(Cl)cc2)N2CCN(CCO)CC2)c1C` (stereo not drawn), the IC50 is 13.5 µM (WT cells) and more than 25 µM under setting [1].

For the compound `c1n[nH]c(NCc2ccc3c(c2)OCO3)n1`, the IC50 was > 25 µM (inactive) (WT cells) and more than 25 µM under setting [1].

As to `CCOC(=O)c1c(NC(=O)C2CCN(S(=O)(=O)c3cccs3)CC2)sc(C)c1C`, the IC50 (WT cells) is > 25 µM (inactive) and the IC50 under setting [1] is more than 25 µM.

`c1csc(C(c2nnnn2C2CCCCC2)N2CCCC3(CCCCC3)C2)c1` (stereo not drawn): the concentration for half-maximal inhibition (IC50) was 4.15 µM (WT cells) and more than 25 µM under setting [1].

In the case of `Cc1ccc(C(C)C)cc1OCC(=O)N/N=C/c1ccc2c(c1)OCCO2`, the IC50 reads like this: (WT cells) 18.3 µM; under setting [1], more than 25 µM.

Consider `O=C(CSCc1cccc(Cl)c1)Nc1ccccc1-c1ccccc1`, for which the concentration for half-maximal inhibition (IC50) was 12.1 µM (WT cells) and more than 25 µM under setting [1].

Take `O=C(O)CCc1ccc(-c2ccc(F)cc2)n1Cc1ccco1`: the IC50 reads like this: (WT cells) > 25 µM (inactive); under setting [1], more than 25 µM.

For `CCOc1ccc(-n2c(SCC(=O)Nc3cc(C)on3)nnc2-c2c[nH]c3ccccc23)cc1`, the IC50 was > 25 µM (inactive) (WT cells) and more than 25 µM under setting [1].

Take `Cc1cc(NC(=S)N(Cc2ccc(Br)cc2)Cc2ccc(C(=O)O)cc2)ccc1Cl`: the IC50 runs as follows: (WT cells) 16.3 µM; under setting [1], more than 25 µM.

For the compound `O=C(NCCCN1CCOCC1)c1ccccc1-c1ccccc1`, the IC50 reads like this: (WT cells) > 25 µM (inactive); under setting [1], more than 25 µM.

In the case of `O=c1cc(-c2ccc(C3CCCCC3)cc2)[nH][nH]1`, the IC50 reads like this: (WT cells) > 25 µM (inactive); under setting [1], more than 25 µM.

For the origin of these results see PubChem BioAssay AID1361 (SRMLSC, 2008).
